# Measured values taken from patent US20100124555A1, “Compositions and Methods for Treating Pancreatic Tumors” (UNIVERSITE DE LA MEDITERRANEE, priority 2007, published 2010).
# Key:
# SOJ-6 cells [1] = assay: Nuclear staining with DAPI (nuclear fragmentation); assay type: cell-based, human; settings: RPMI induced no apoptosis
# Description: After treatment with mAb16D10 or cisplatin, cells were washed in ice-cold PBS, fixed and permeablized with 70% ethanol for 5 min at […] and staining with diluted 1/1000 DAPI solution in PBS for 1 min at room temperature. The cells were then washed with PBS. The nuclear morphology of cells was examined by fluorescence microscopy.
# [2] = system: Bcl-2, Bax, caspases 8 and 9, PARP in SOJ-6 cells; assay: SDS-PAGE and western blot of apoptosis proteins; assay type: cell-based, human; settings: SOJ-6, 24 hours
# Description: SOJ-6 cells were grown in 6-well culture plates in RPMI 1640 medium with 10% FCS. At subconfluency, the medium was removed and replaced for 24 hours by fresh RPMI medium with 10% inactivated FCS. SOJ-6 cells were then incubated with mAb16D10 or Cisplatin for 24 hours. At the end of incubation, cells were washed three times with ice-cold PBS (without […] and Mg^++) harvested and pelleted by centrifugation. Pellets were washed twice and lysed at 4° C. in 0.5 ml of lysis buffer (10 mM Tris-HCl pH 7.4, 150 mM NaCl, 1% Triton X-100, 1 mM benzamidine and phosphatase inhibitors). After lysis, homogenates were clarified by centrifugation at 10,000 g for 10 min at 4° C. An aliquot was saved for protein determination using the bicinchoninic acid assay (Pierce, Rockford, Ill.). Proteins (50 μg/lane) in reducing SDS buffer were separated onto 10, 12, or 15% polyacrylamide with 0.1% SDS (according to the molecular weight range of proteins to be separated). After electrophoretic migration, proteins were silver stained. Alternatively, proteins were transferred onto nitrocellulose membranes using a Mini Transblot electrophoretic cell (BioRad, Hercule, Oreg.), and transferred proteins were immunodetected by using appropriate primary and secondary antibodies. After washes, membranes were developed with a chemoluminescent substrate according to the manufacturer's instructions (Roche Diagnostics, Switzerland). In each experiment, a control was included by omitting primary antibodies or by using a non-immune serum.
# PANC-1 cells = assay: MTT cell growth and proliferation assay, PANC-1; assay type: cell-based, human; settings: PANC-1, 24 hours, gemcitabine 0 to 10 μM or cisplatin 0 to 40 μM
# Description: (§1) Cell proliferation was determined using MTT assay as previously described (Mosmann et al., 1983 J Immunol Methods, 65(1-2):55-63). Briefly, cells were seeded at subconfluence in appropriate complete media containing 10% FCS in 96-well culture plates. Media were replaced for 24 h by fresh media with 10% inactivated FCS, including increasing concentrations of antibodies directed against FAPP (pAbL64, mAbJ28 and mAb16D10). Cells were washed with PBS and incubated with 100 μl of MTT (0.5 mg/ml) in complete media for 3 h, washed with PBS and finally incubated with DMSO for 30 min at 37° C. Cell growth was determined by measuring absorbance at 550 nm using a MR 5000 microplate spectrophotometer. All independent determinations were done in triplicate and compared to control.
# [3] = system: 16D10 epitope on the BSDL/FAPP polypeptide of SOJ-6 cells; assay: 16D10 epitope expression on drug-treated cells (immunofluorescence and flow cytometry); assay type: cell-based, human; settings: for cell morphology of drug-treated cells: SOJ-6, immunofluorescence; for 16D10 staining by immunofluorescence of drug-treated cells: SOJ-6 on glass slides; for Average (16D10 binding, flow cytometry) / 16D10 epitope expression: SOJ-6 treated with 20 μM cisplatin or 5 μM gemcitabine; for Average (16D10 binding, flow cytometry): control 418.7 +/− 50.5; for 16D10 epitope expression: change versus control
# Description: Antibody 16D10 binding to SOJ-6 cells following treatment with chemotherapeutic agents was tested in order to assess whether gemcitabine or cisplatin affect the expression of the 16D10 epitope on the BSDL/FAPP polypeptide. Antibody 16D10 binding was assessed by immunofluorescence and flow cytometry following treatment of SOJ-6 cells with 20 μM cisplatin or 5 μM gemcitabine.
# For immunofluorescence, SOJ-6 cells were cultured on glass slides and treated or not with gemcitabine or cisplatin, fixed and incubated in the presence of 16D10 and a secondary antibody coupled to fluorescein. Slides were assessed with fluorescence microscope.
# SOJ-6 cells [4] = assay: MTT cell growth and proliferation assay, SOJ-6; assay type: cell-based, human; settings: SOJ-6, 24 hours, gemcitabine 0 to 10 μM or cisplatin 0 to 40 μM
# SOJ-6 cells [5] = assay: MTT cell growth and proliferation assay, SOJ-6; assay type: cell-based, human; settings: SOJ-6 treated with raft-disrupting drug or glycosphingolipid biosynthesis inhibitor (10 μM), with mAb16D10
# Description: as §1
# SOJ-6 cells [6] = assay: Apoptosis by caspase activity (CaspACE FITC-VAD-fmk in situ marker); assay type: cell-based, human; settings: SOJ-6, 24 hours; 16D10 25 μg/ml, recombinant chimeric 16D10 5 μg/ml
# Description: Cells grown in 8-well plates (Polystyrene vessel, BD Falcon) were treated with mAb16D10 or mouse IgM in RPMI with inactivated FCS for 24 hours prior to the addition of CaspACE FITC-VAD-fmk in situ marker (Promega) at a final concentration of 10 μM in the culture medium according to manufacturer's instructions. Then cells were washed in PBS, fixed for 15 minutes in 2% paraformaldehyde, and washed once again. Upon caspase action on FITC-VAD-fmk, apoptotic cells become fluorescent and the number of fluorescent cells was determined in triplicate on collections of 10 fields randomly examined under the fluorescent microscope.
# pancreatic cancers = settings: patients with pancreatic cancer; cited from earlier work
# [7] = biological target: feto-acinar pancreatic protein (FAPP), oncofetal glycoisoform of pancreatic bile salt-dependent lipase (BSDL), on the surface of SOJ-6 human pancreatic tumor cells (human) (UniProt P19835); assay: isotype control in indirect immunofluorescence flow cytometry (FL1-H) on SOJ-6 cells; antibody concentration not given; row 'Control -': Median 3,02
# Chain of feto-acinar pancreatic protein (FAPP), oncofetal glycoisoform of pancreatic bile salt-dependent lipase (BSDL), on the surface of SOJ-6 human pancreatic tumor cells (human) (P19835 21-753): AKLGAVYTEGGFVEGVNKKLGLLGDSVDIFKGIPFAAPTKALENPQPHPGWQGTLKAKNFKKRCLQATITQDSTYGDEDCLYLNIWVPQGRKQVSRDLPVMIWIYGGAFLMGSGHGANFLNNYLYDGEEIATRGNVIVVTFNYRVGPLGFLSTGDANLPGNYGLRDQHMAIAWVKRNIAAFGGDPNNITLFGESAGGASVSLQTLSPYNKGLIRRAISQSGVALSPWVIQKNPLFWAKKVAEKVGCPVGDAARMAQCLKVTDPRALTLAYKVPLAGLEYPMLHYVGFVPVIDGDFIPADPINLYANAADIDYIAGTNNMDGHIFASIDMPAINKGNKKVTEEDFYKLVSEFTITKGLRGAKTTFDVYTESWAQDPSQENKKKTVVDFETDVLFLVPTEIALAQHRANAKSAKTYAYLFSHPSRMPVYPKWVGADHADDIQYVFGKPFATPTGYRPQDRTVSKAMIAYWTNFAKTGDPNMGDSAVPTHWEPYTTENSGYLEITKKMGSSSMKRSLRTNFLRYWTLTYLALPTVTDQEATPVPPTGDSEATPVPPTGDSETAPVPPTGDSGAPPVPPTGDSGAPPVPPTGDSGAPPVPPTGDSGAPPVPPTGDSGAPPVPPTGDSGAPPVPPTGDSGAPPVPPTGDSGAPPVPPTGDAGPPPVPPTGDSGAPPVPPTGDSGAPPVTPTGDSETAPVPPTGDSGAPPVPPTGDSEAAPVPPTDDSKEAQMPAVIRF
# PANC-1 [8] = assay: isotype control in indirect immunofluorescence flow cytometry (FL1-H) on PANC-1 cells (no FAPP); antibody concentration not given; row 'Control -': Median 3,22
# PANC-1 [9] = assay: isotype control in indirect immunofluorescence flow cytometry (FL1-H) on PANC-1 cells (no FAPP); main peak near the negative control with a tail to about 100-200 FL1-H; antibody concentration not given; row 'Control -': Mean 4,60
# [10] = biological target: feto-acinar pancreatic protein (FAPP), oncofetal glycoisoform of pancreatic bile salt-dependent lipase (BSDL), on the surface of SOJ-6 human pancreatic tumor cells (human) (UniProt P19835); assay: isotype control in indirect immunofluorescence flow cytometry (FL1-H) on SOJ-6 cells; broad histogram from about 2 to about 300 FL1-H, between the negative control and mAb16D10; antibody concentration not given; row 'Control -': Mean 3,43
# NK cells = assay: NK cell activation (ADCC): CD107 mobilization and IFN-γ production by flow cytometry; assay type: cell-based, human; settings: presence of SOJ-6 cells
# Description: Thawed purified human NK cells stimulated or not overnight with 100 UI/mL of IL-2 were mixed with SOJ-6 or B221 cell lines at an effector/target ratio equal to 1, alone or in the presence of rec16D10 (30 μg/mL) or rituxan (10 μg/mL). Cells were then incubated for 4 hours at 37° C. in the presence of FITC conjugated anti-CD107 mAbs (Becton Dickinson) and monensin (sigma). After incubation, cells were washed in PBS containing 2 mM EDTA to disrupt cell conjugates and stained for extracellular markers (PC5 conjugated anti-CD56 and PC7 conjugated anti-CD3 purchased from Beckman coulter). Cells were then fixed and permeabilized using IntraPrep reagent (Beckman Coulter). […] Samples were then analysed on FACScanto (Becton Dickinson).
# The chimeric antibody rec16D10 (30 μg/ml) was incubated with target SOJ-6 cells together with NK cells, with or without overnight treatment with IL-2 (100 U/ml) (FIG. 19). As a control, the Rituxan antibody (10 μg/ml) was used with target B221 cells. Effector cells and target cells were used at a ratio of: 1/1 (100000 NK/well). Thawed purified NK cells from two donors (NK1 and NK2) were incubated with the antibodies and target cells. Activation of NK cells was examined by virtue of CD 107 staining and IFN-γ secretion. […] Under similar conditions, approximately 30% of NK1 and NK2 cells secreted IFN-γ (vs. less than 16% and 13% in the absence of antibody or with Rituxan in NK1 and NK2 cells, respectively) (FIG. 21).
# SOJ-6 cells [11] = assay: Annexin V / PI apoptosis assay; assay type: cell-based, human; settings: antibodies 20 μg/ml, tunicamycin 25 or 50 μg/ml
# Description: SOJ-6 cells (20.10^4 cells per well) were seeded onto 24 wells plates 72H before to start the experiment. Cells were incubated either with 20 μg/ml 16D10 IgM, or 20 μg/ml of a further recombinant 16D10 IgG1 antibody which contained the 16D10 variable regions linked fused to a human IgG1 constant region and human kappa light region for the heavy and light chains respectively, 25 μg/ml Tunicamycin or 50 μg/ml Tunicamycin. The AnnexinV/PI stainings were performed after 24H of culture using the AnnexinV-FITC Apoptosis Detection Kit I (BD Pharmingen) according to the manufacturer instructions. Stainings were acquired on a FACScan (Becton Dickinson, San Jose, Calif.) and results were analysed using FlowJo Software.
compound,measurement,setting,value
"N.N.[Cl][Pt][Cl] [Cisplatin, cis-diaminedichloridoplatinum(II)]",apoptosis observed by DAPI staining (nuclear fragmentation),SOJ-6 cells [1],low level of apoptosis
same,activation of caspase 9 and PARP (immunodetection),[2],activated
same,proliferation by MTT assay,PANC-1 cells,dose dependent decrease in proliferation is seen for both cell lines
same,"16D10 surface binding of drug-treated cells (flow cytometry, in words)",[3]; SOJ-6,decrease in expression of the 16D10 epitope
same,cell morphology of drug-treated cells,[3],clear morphological changes
same,16D10 staining by immunofluorescence of drug-treated cells,[3],showed staining with 16D10
same,"Average (16D10 binding, flow cytometry)",[3],324.6 +/− 26.3
same,16D10 epitope expression,[3],−32.5
same,proliferation by MTT assay,SOJ-6 cells [4],dose dependent decrease in proliferation is seen for both cell lines
CCCCC[C@@H](O)[C@H]1C(=O)O[C@H](C)[C@@H](O)/C=C/C=C/C=C/C=C/C=C(\C)[C@@H](O)C[C@H](O)C[C@H](O)C[C@H](O)C[C@H](O)C[C@H](O)C[C@@H]1O [Filipin],influence on the antiproliferative effect of mAb16D10,SOJ-6 cells [5],decreased
"CCCC[C@@H](C)[C@@H](OC(=O)C[C@@H](CC(=O)O)C(=O)O)[C@H](C[C@@H](C)C[C@H](O)CCCC[C@@H](O)C[C@H](O)[C@H](C)N)OC(=O)C[C@@H](CC(=O)O)C(=O)O [Fumonisin 1, Fumonisin B1]",influence on the antiproliferative effect of mAb16D10,SOJ-6 cells [5],neither L-cyclo-serine (LCS) (an inhibitor of serine palmitoyltransferase) nor Fumonisin 1 or 2 (both inhibitors of dihydroceramide synthetase) interfered
"CCCC[C@@H](C)[C@@H](OC(=O)C[C@@H](CC(=O)O)C(=O)O)[C@H](C[C@@H](C)CCCCCC[C@@H](O)C[C@H](O)[C@H](C)N)OC(=O)C[C@@H](CC(=O)O)C(=O)O [Fumonisin 2, Fumonisin B2]",influence on the antiproliferative effect of mAb16D10,SOJ-6 cells [5],neither L-cyclo-serine (LCS) (an inhibitor of serine palmitoyltransferase) nor Fumonisin 1 or 2 (both inhibitors of dihydroceramide synthetase) interfered
"Nc1ccn(C2OC(CO)C(O)C2(F)F)c(=O)n1 (stereo not shown) [Gemcitabine, 4-amino-1-[3,3-difluoro-4-hydroxy-5-(hydroxymethyl)tetrahydrofuran-2-yl]-1H-pyrimidin-2-one]",apoptosis by caspase activity (number of apoptotic cells compared to control),SOJ-6 cells [6],induce apoptosis on SOJ-6 cells
same,activation of caspase 9 and PARP (immunodetection),[2],activated
same,proliferation by MTT assay,PANC-1 cells,relatively resistant to gemcitabine
same,cell morphology of drug-treated cells,[3],clear morphological changes
same,16D10 staining by immunofluorescence of drug-treated cells,[3],showed staining with 16D10
same,"Average (16D10 binding, flow cytometry)",[3],419.0 +/− 36.2
same,16D10 epitope expression,[3],0
same,proliferation by MTT assay,SOJ-6 cells [4],a decrease in proliferation is seen only in SOJ-6 cells
same,improvement in survival at one year compared to untreated patients,pancreatic cancers,18%
N[C@H]1CONC1=O [L-cyclo-serine],influence on the antiproliferative effect of mAb16D10,SOJ-6 cells [5],neither L-cyclo-serine (LCS) (an inhibitor of serine palmitoyltransferase) nor Fumonisin 1 or 2 (both inhibitors of dihydroceramide synthetase) interfered
"CCCCCCCCCC(=O)NC(CN1CCOCC1)C(O)c1ccccc1 (stereo not shown) [PDMP, Phenyl-2-decanoylamino-3-morpholino-1-propanol]",influence on the antiproliferative effect of mAb16D10,SOJ-6 cells [5],impaired the effect of mAb16D10 on SOJ-6 cell proliferation
IgM mouse SIGMA (antibody),Median,[7],19.8
same,Median,PANC-1 [8],4.61
same,Mean,PANC-1 [9],13
same,Mean,[10],86.7
Rituxan: Rituxan antibody used as a control with target B221 cells [reference compound],NK1 cells secreting IFN-γ,"NK cells; donor NK1, IL-2 treated",less than 16%
same,CD 107-positive staining of NK1 cells,"NK cells; donor NK1, IL-2 treated, E/T 1/1, rec16D10 30 μg/ml, Rituxan 10 μg/ml",< 30%
same,NK2 cells secreting IFN-γ,"NK cells; donor NK2, IL-2 treated",< 13%
same,CD 107-positive staining of NK2 cells,"NK cells; donor NK2, IL-2 treated, E/T 1/1, rec16D10 30 μg/ml, Rituxan 10 μg/ml",< 20%
methyl-β-cyclodextrin,influence on the antiproliferative effect of mAb16D10,SOJ-6 cells [5],decreased
same,influence on the antiproliferative effect of mAb16D10,SOJ-6 cells [5]; listed as MBCD,decreases or abolishes the cell growth inhibiting activity of antibody 16D10
tunicamycin [reference compound],apoptosis by Annexin V and Annexin V/PI staining,SOJ-6 cells [11],induced significant levels of apoptosis
